One test relates to Aspergillus brasiliensis. The experiment in a line: Antimicrobial efficacy in analogy to challenge test NF EN ISO11930, Aspergillus brasiliensis. It counts as cell-based. The settings on record: 24 h, 22° C.; for Aspergillus brasiliensis colony count: initial count 10000 cfu/ml. Here is the method:
(§1) The wells were contaminated with Malassezia furfur, Propionibacterium acnes, respectively Aspergillus brasiliensis to obtain the initial contamination as outlined in table 1, 2 and 3. […] The counting of the (remaining) population was carried out 24 h after contamination.
(The term “Log reduction” is a well-known mathematical term used to show the relative number of cells, germs, microbes, etc., reduced in or on something, e.g. a 2 log reduction means the number of microbes is 100 times smaller and a 3 log reduction means the number of microbes is 1000 times smaller).

Another test relates to Malassezia furfur. Briefly: Antimicrobial efficacy in analogy to challenge test NF EN ISO11930, Malassezia furfur. It counts as cell-based. The settings on record: for Δ (change of microorganism count t = 0 h to t = 24): 24 h, 0.5 wt.-% of each active; for Δ (change of microorganism count t = 0 h to t = 24) / Malassezia furfur colony count: 22° C., initial count 3300 cfu/ml; for Malassezia furfur colony count: 24 h after contamination, physiological serum 0.85 wt.-% NaCl, 0.5 wt.-% of each active (0.5 wt.-% Erythrulose corresponds to 0.4 wt.-% of active). Here is the method:
as §1

Where [1] appears, read: 0.4 wt.-% p-Hydroxyacetophenone.
Where [2] appears, read: 0.5 wt.-% Erythrulose (corresponds to 0.4 wt.-% of active).

Consider 2 molecules from US11364208B2, “Topical compositions” (DSM IP ASSETS B.V., priority 2017, dated 2022).

As for `CC(=O)c1ccc(O)cc1` [p-Hydroxyacetophenone, 1-(4-hydroxyphenyl)-ethanone], in the test on Aspergillus brasiliensis (setting [1]), the Log step reduction turned out to be 2 and the “Aspergillus brasiliensis colony count” value is on record as 100 cfu/ml. In the test on Malassezia furfur, the “Δ (change of microorganism count t = 0 h to t = 24)” value is −83% and the “Malassezia furfur colony count” value stood at 550 cfu/ml.

With `O=C(CO)[C@@H](O)CO` [Erythrulose, L-(+)-Erythrulose], in the test with Aspergillus brasiliensis (setting [2]), the Log step reduction is listed as 2 and the “Aspergillus brasiliensis colony count” value is reported as 100 cfu/ml. In the test on Malassezia furfur, the “Δ (change of microorganism count t = 0 h to t = 24)” value is given as “±0%” and the “Malassezia furfur colony count” value is given as 3300 cfu/ml. For the same molecule, the “anti-fungal effect against Malassezia furfur (in words)” value with Malassezia furfur (concentration of 0.5%) is “does not exert any anti-fungal effect”.
